Here are results for two molecules from US11065240B2, “Drug combinations to treat multiple myeloma” (Exelixis, Inc., priority 2014, dated 2021).

In experiment [1] the test system is 5TGM1 mouse myeloma cells. Nature of the experiment: 5TGM1 murine multiple myeloma model, study 2: overall survival, alone or in combination. It is filed as in vivo. To be noted: for prolongation of overall survival (OS) compared to vehicle, statistical significance / median survival time: bortezomib 0.5 mg/kg ip twice a week, cabozantinib 10 mg/kg PO QD; for median survival time: vehicle 36 d, FIG. 1. As to the method: Cabozantinib (XL184) is obtained from the Exelixis in powder form. It is dissolved in sterile water to a concentration of 1 mg/ml for dosing at 10 mg/kg or 30 mg/kg. The dosing solution is prepared daily within one hour before dosing. The undissolved test compound will be stored at ambient or room temperature in a dry environment such as in a dessicator. The test compound is administered daily by oral gavage.
Bortezomib is obtained from LC Laboratories (Boston, Mass., USA) in powder form and dissolved in EtOH. The stock solution is stored at −20° C. The bortezomib dosing solutions are prepared fresh for every dosing as follows: 25 μl of the stock solution of 25 mg/ml of bortezomib (LC Laboratories, Boston, Mass., USA) in EtOH and 25 μl of EtOH is diluted in 3.61 ml of 0.9% NaCl to obtain the concentration of 0.17 mg/ml. The dosing volume is 3 ml/kg, resulting in the dose 0.5 mg/kg. Bortezomib is administered intraperitoneally twice a week.
5TGM1 mouse multiple myeloma cells are obtained from the Department of Molecular Medicine, University of Texas Health Science Center at San Antonio. Cell culturing is performed according to standard procedures. 5TGM1 mouse myeloma cells (2×10^6 cells in 0.1 ml of PBS) are inoculated into the tail vein of the mice at day 0. Viability of the cells will be determined before and after the inoculations. Cancer cell inoculation will cause the mice to develop a bone disease typical for multiple myeloma.
Statistical analysis will be performed with statistical software R (version 2.14.0 or newer, www.r-project.org) or OriginPro (version 8.6 or newer, OriginLab, Northampton, Mass., USA). The mean and standard deviation of each parameter will be determined. All statistical analyses will be performed as two-sided tests. Normal distribution and homogeneity of variance will be checked before further analyses. In case of violating these assumptions, either log transformation or other appropriate transformation (e.g. square root, reciprocal) will be applied. If the assumptions are fulfilled as such or after transformation, Oneway ANOVA will be used for end-point parameters to assess whether the values obtained between groups are statistically different (with p<0.05) followed by Tukey test for comparison against the control group. If the assumptions are not fulfilled even after the transformations described above, rank-transformation will be applied and the non-parametric Kruskal-Wallis test followed by Mann-Whitney U-test will be used. Linear mixed effects model will be used for repeated measurements like biochemical markers.
Female C57BL/KaLwRij mice were allocated to treatment groups (n=15 per group) with equivalent average body weights. Four experimental groups were utilized in each of 2 studies: a vehicle control group, and groups receiving single agent bortezomib (0.5 mg/kg ip twice a week) or cabozantinib (10 mg/kg, PO QD). Study 1 also included a higher dose cabozantinib group (30 mg/kg, PO QD), and study 2 included a combination group: bortezomib (0.5 mg/kg ip twice a week) plus cabozantinib (10 mg/kg, PO QD). […]
On day 0, animals were inoculated with 5TGM1 mouse myeloma cells by IV administration. […] Body weights were determined twice a week and blood samples were collected on days—1, 15, 22, and 34 for analysis of paraprotein (IgG2b) and TRACP 5b. In study 1 the development of osteolytic lesions was detected by radiography at the end of the study. […]

For experiment [2], the system named is 5TGM1 mouse myeloma cells. Nature of the experiment: 5TGM1 murine multiple myeloma model, study 1: bone lesions and tumor burden. It is filed as in vivo. The following applies: for bone protective properties/effects: cabozantinib 10 or 30 mg/kg PO QD; for frequency of soft tissue lesions: cabozantinib both doses (10 and 30 mg/kg PO QD). As to the method:
Cabozantinib (XL184) is obtained from the Exelixis in powder form. It is dissolved in sterile water to a concentration of 1 mg/ml for dosing at 10 mg/kg or 30 mg/kg. The dosing solution is prepared daily within one hour before dosing. The undissolved test compound will be stored at ambient or room temperature in a dry environment such as in a dessicator. The test compound is administered daily by oral gavage. Bortezomib is obtained from LC Laboratories (Boston, Mass., USA) in powder form and dissolved in EtOH. The stock solution is stored at -20° C. The bortezomib dosing solutions are prepared fresh for every dosing as follows: 25 μl of the stock solution of 25 mg/ml of bortezomib (LC Laboratories, Boston, Mass., USA) in EtOH and 25 μl of EtOH is diluted in 3.61 ml of 0.9% NaCl to obtain the concentration of 0.17 mg/ml. The dosing volume is 3 ml/kg, resulting in the dose 0.5 mg/kg. Bortezomib is administered intraperitoneally twice a week. 5TGM1 mouse multiple myeloma cells are obtained from the Department of Molecular Medicine, University of Texas Health Science Center at San Antonio. Cell culturing is performed according to standard procedures. 5TGM1 mouse myeloma cells (2×10^6 cells in 0.1 ml of PBS) are inoculated into the tail vein of the mice at day 0. Viability of the cells will be determined before and after the inoculations. Cancer cell inoculation will cause the mice to develop a bone disease typical for multiple myeloma. Blood samples will be collected from the saphenous vein before the inoculation of cancer cells, at days 15, 22, 35 and at sacrifice. The serum samples will be prepared within one hour of sampling, and stored at -70° C. Serum paraprotein IgG2b will be analyzed using mouse IgG2b ELISA quantitation kit (Bethyl Laboratories Inc, Montgomery, Tex., USA). Serum […] activity and PINP concentration will be analyzed using Mouse TRAP and Mouse PINP kits (IDS, Boldon, UK). The development of the myeloma bone disease is monitored by x-ray radiography at day 35. Animals will be anesthethized by isoflurane and x-rayed in a prone position with the Faxitron Specimen Radiographic System MX-20 D12 (Faxitron Corp. Illinois, USA) using Faxitron Dicom 3.0-software. At least one radiograph (both hind limbs) per animal will be taken on each x-ray occasion (31 kV, 10 seconds, magnification 2×). The lesion number and lesion area in hind limbs will be determined from the images with MetaMorph image analysis software. Statistical analysis will be performed with statistical software R (version 2.14.0 or newer, www.r-project.org) or OriginPro (version 8.6 or newer, OriginLab, Northampton, Mass., USA). The mean and standard deviation of each parameter will be determined. All statistical analyses will be performed as two-sided tests. Normal distribution and homogeneity of variance will be checked before further analyses. In case of violating these assumptions, either log transformation or other appropriate transformation (e.g. square root, reciprocal) will be applied. If the assumptions are fulfilled as such or after transformation, Oneway ANOVA will be used for end-point parameters to assess whether the values obtained between groups are statistically different (with p<0.05) followed by Tukey test for comparison against the control group. If the assumptions are not fulfilled even after the transformations described above, rank-transformation will be applied and the non-parametric Kruskal-Wallis test followed by Mann-Whitney U-test will be used. Linear mixed effects model will be used for repeated measurements like biochemical markers. Female C57BL/KaLwRij mice were allocated to treatment groups (n=15 per group) with equivalent average body weights. Four experimental groups were utilized in each of 2 studies: a vehicle control group, and groups receiving single agent bortezomib (0.5 mg/kg ip twice a week) or cabozantinib (10 mg/kg, PO QD). […]

Where [3] appears, read: study 1, 30 mg/kg PO QD, radiography at end of study.
Setting [4] is: study 1, bortezomib 0.5 mg/kg ip twice a week.
Setting [5] is: study 1, both the 10 and 30 mg/kg doses PO QD.

Molecules are shown by their SMILES.

Consider `COc1cc2nccc(Oc3ccc(NC(=O)C4(C(=O)Nc5ccc(F)cc5)CC4)cc3)c2cc1OC` [cabozantinib, N-(4-{[6,7-bis(methyloxy)quinolin-4-yl]oxy}phenyl)-N′-(4-fluorophenyl)cyclopropane-1,1-dicarboxamide], for which, in experiment [1], the “prolongation of overall survival (OS) compared to vehicle, statistical significance” value is “statistically significant” and the median survival time worked out at 48 days. Also, the “prolongation of overall survival (conclusion, comparator not stated)” value in experiment [1] (conclusions) was “statistically-significant prolongation”. The “bone-protective and anti-tumor effects (conclusion)” value in experiment [2] (murine model of MM, conclusions) was “showed both bone-protective and anti-tumor effects”. Further, in experiment [2] (setting [3]), the “mean area of osteolytic lesions” value is listed as “reduced” and the “total area of osteolytic lesions” value is listed as “reduced”. Besides, the “necrotic tumor area in bone” value in experiment [2] (study 1, 10 and 30 mg/kg PO QD) is “dose dependently increased”. Further, in experiment [2] (setting [4]), the bone protective properties/effects entry was “exhibited bone protective effects” and the “frequency of soft tissue lesions” value is “decreased”. Also, the “start of the rise in serum IgG2b” value in experiment [2] (study 1, both cabozantinib-treated groups (10 and 30 mg/kg), vs vehicle control) is given as “started earlier than vehicle control”. In addition, the “relative IgG2b at sacrifice” value in experiment [2] (study 1, both cabozantinib-treated groups, vs vehicle control) is “a significant difference was not observed”. In experiment [2] (setting [5]), the “osteoclast counts at the tumor-bone interface” value is reported as “reduced” and the “serum TRACP 5b values” is given as “reduced”. Moreover, the relative bone area entry in experiment [2] (study 1, histomorphometry, vs control) was “did not differ from control”.
`CC(C)C[C@H](NC(=O)[C@H](Cc1ccccc1)NC(=O)c1cnccn1)B(O)O` [bortezomib, reference compound]: in experiment [1], the “prolongation of overall survival (OS) compared to vehicle, statistical significance” value is “not” and the median survival time came out at 43 days. In experiment [2] (setting [4]), the bone protective properties/effects entry was “did not show bone protective properties” and the “frequency of soft tissue lesions” value is on record as “decreased”. Moreover, the “serum IgG2b levels” value in experiment [2] (study 1, female C57BL/KaLwRij mice, bortezomib 0.5 mg/kg ip twice a week, vs vehicle) is listed as “reduced”.
